Km data for one compound are collected here from article PMC4013123 (PLoS ONE, 2014).

What is called Km is the substrate concentration at which the rate is half of its maximum.

Experiment [1] has as its target WT MPH (methyl parathion hydrolase) (Ochrobactrum sp. M231, UniProt B2Z3X1). The source says: steady-state kinetics of purified enzyme (standard assay by reference) on WT MPH (methyl parathion hydrolase)
The target of the next experiment is D10-MPH (Ochrobactrum sp. M231, UniProt B2Z3X1). The source says: steady-state kinetics of purified enzyme (standard assay by reference) on D10-MPH
Chain of D10-MPH (B2Z3X1 entry or part of it): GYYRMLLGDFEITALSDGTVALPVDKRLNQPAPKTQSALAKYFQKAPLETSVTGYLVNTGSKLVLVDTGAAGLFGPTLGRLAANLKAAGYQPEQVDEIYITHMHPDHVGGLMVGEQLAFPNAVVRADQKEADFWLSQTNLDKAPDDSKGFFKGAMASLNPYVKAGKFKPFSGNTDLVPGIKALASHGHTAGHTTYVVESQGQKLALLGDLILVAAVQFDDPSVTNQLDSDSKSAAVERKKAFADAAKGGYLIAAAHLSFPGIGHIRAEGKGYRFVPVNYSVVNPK

Chain of WT MPH (methyl parathion hydrolase) (B2Z3X1 entry or part of it): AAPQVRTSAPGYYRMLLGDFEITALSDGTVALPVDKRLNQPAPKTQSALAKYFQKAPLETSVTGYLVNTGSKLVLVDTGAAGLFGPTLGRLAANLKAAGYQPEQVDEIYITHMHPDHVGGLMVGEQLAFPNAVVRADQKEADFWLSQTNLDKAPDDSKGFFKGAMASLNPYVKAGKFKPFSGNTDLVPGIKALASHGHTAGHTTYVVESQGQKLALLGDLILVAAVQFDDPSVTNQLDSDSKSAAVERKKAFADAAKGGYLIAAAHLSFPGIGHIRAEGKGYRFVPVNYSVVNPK

With `COP(=S)(OC)Oc1ccc([N+](=O)[O-])cc1` [methyl parathion], the Km in experiment [1] was 73.2 ± 4.7 µM; on D10-MPH, 86.9 ± 4.01 µM.
